From ChEMBL document CHEMBL4130412, “Characterization of the Degradation Profile of Umbelliprenin, a Bioactive Prenylated Coumarin of a Ferulago Species” (J Nat Prod, 2017) come the findings set out here.

Assay type in all cases: physicochemical
Data set [1] can be described thus: Drug level treated with umbelliprenin under sunlight in EtOH solution after 6 days by 1H-NMR analysis. To be noted: 144 h.
Data set [2] is described as follows: Thermal stability of the compound assessed as compound degradation at 40 degC in EtOH solution after 48 hrs by HPLC analysis. To be noted: read-out: Drug degradation.
Data set [3] can be described thus: Stability of the compound assessed as compound degradation in 0.1 M NaOH solution at 60 degC in EtOH solution after 96 hrs by HPLC analysis. The settings on record: 0.1 M NaOH solution in EtOH solution; read-out: Drug degradation.
The nature of data set [4]: Photochemical stability of the compound assessed as compound degradation under sunlight using solid samples measured up to 96 hrs by HPLC analysis. To be noted: read-out: Drug degradation.
Data set [5] in a line: Photostability of the compound assessed as parent compound remaining under sunlight exposed for 6 days in EtOH solution measured in presence of UV-B filter octinoxate by TLC method. The settings on record: read-out: Stability.
A short description of data set [6]: Photostability of the compound assessed as parent compound remaining under sunlight exposed for 6 days in EtOH solution measured by TLC method. To be noted: read-out: Stability.
The nature of data set [7]: Stability of the compound assessed as compound degradation in 3% H2O2 solution at room temperature in EtOH solution after 24 hrs by HPLC analysis. To be noted: 3% H2O2 solution in EtOH solution; read-out: Drug degradation.
A short description of data set [8]: Stability of the compound assessed as compound degradation in 0.1 M NaOH solution at room temperature in EtOH solution after 96 hrs by HPLC analysis. The settings on record: 0.1 M NaOH solution in EtOH solution; read-out: Drug degradation.
The nature of data set [9]: Stability of the compound assessed as compound degradation in 3% H2O2 solution at 40 degC in EtOH solution after 24 hrs by HPLC analysis. To be noted: 3% H2O2 solution in EtOH solution; read-out: Drug degradation.
Data set [10] can be described thus: Stability of the compound assessed as compound degradation in 0.1 M HCl solution at room temperature in EtOH solution after 96 hrs by HPLC analysis. The settings on record: 0.1 M HCl solution in EtOH solution; read-out: Drug degradation.
The nature of data set [11]: Photostability of the compound assessed as parent compound remaining under sunlight exposed for 3 days in EtOH solution measured in presence of antioxidant DL-alpha-tocopherol acetate by TLC method. The settings on record: read-out: Stability.
Data set [12] can be described thus: Photochemical stability of the compound assessed as compound degradation under sunlight in EtOH solution measured after 4 days by HPLC analysis. To be noted: read-out: Drug degradation.
Data set [13] in a line: Thermal stability of the compound assessed as compound degradation at 37 to 80 degC using solid samples after 96 hrs by HPLC analysis. The settings on record: read-out: Drug degradation.
A short description of data set [14]: Stability of the compound assessed as compound degradation in 0.1 M NaOH solution at 60 to 80 degC using solid sample up to 96 hrs by HPLC analysis.
A short description of data set [15]: Photostability of the compound assessed as parent compound remaining under sunlight exposed for 3 days in EtOH solution measured in presence of UV-A filter avobenzone by TLC method. The settings on record: read-out: Stability.
The nature of data set [16]: Thermal stability of the compound at 37 degC in EtOH solution after 3 to 4 days by HPLC analysis.
A short description of data set [17]: Stability of the compound assessed as compound degradation in 3% H2O2 solution at 40 degC in EtOH solution after 96 hrs by HPLC analysis. To be noted: 3% H2O2 solution in EtOH solution; read-out: Drug degradation.
Data set [18] can be described thus: Photochemical stability of the compound assessed as compound degradation under 254 nm UV-light exposure in EtOH solution measured after 24 hrs by HPLC analysis. To be noted: read-out: Drug degradation.
The nature of data set [19]: Photochemical stability of the compound assessed as compound degradation under sunlight in EtOH solution measured after 24 hrs by HPLC analysis. To be noted: read-out: Drug degradation.
The nature of data set [20]: Stability of the compound assessed as compound degradation in 0.1 M HCl solution at 60 to 80 degC using solid sample up to 96 hrs by HPLC analysis. To be noted: buffer.
Data set [21] in a line: Photostability of the compound assessed as parent compound remaining under sunlight exposed for 3 days in EtOH solution measured in presence of UV-A filter DHHB by TLC method. To be noted: read-out: Stability.
Data set [22] can be described thus: Photochemical stability of the compound assessed as compound degradation under 254 nm UV-light exposure using solid samples measured up to 96 hrs by HPLC analysis. The settings on record: read-out: Drug degradation.
The nature of data set [23]: Photostability of the compound assessed as parent compound remaining under sunlight exposed for 3 days in EtOH solution measured by TLC method. The settings on record: read-out: Stability.
A short description of data set [24]: Stability of the compound assessed as compound degradation in 0.1 M HCl solution at 60 degC in EtOH solution after 24 hrs by HPLC analysis. The settings on record: 0.1 M HCl solution in EtOH solution; read-out: Drug degradation.
A short description of data set [25]: Photostability of the compound assessed as parent compound remaining under sunlight exposed for 3 days in EtOH solution measured in presence of UV-B filter octinoxate by TLC method. To be noted: read-out: Stability.
Data set [26] in a line: Photostability of the compound assessed as parent compound remaining under sunlight exposed for 6 days in EtOH solution measured in presence of UV-A filter avobenzone by TLC method. The settings on record: read-out: Stability.
Data set [27] is described as follows: Thermal stability of the compound assessed as compound degradation at 80 degC in EtOH solution measured up to 96 hrs by HPLC analysis. To be noted: read-out: Drug degradation.
Data set [28] can be described thus: Photostability of the compound assessed as parent compound remaining under sunlight exposed for 6 days in EtOH solution measured in presence of UV-A filter DHHB by TLC method. The settings on record: read-out: Stability.
Data set [29] can be described thus: Thermal stability of the compound assessed as compound degradation at 37 degC in EtOH solution after 48 hrs by HPLC analysis. To be noted: read-out: Drug degradation.
Data set [30] in a line: Stability of the compound assessed as compound degradation in 3% H2O2 solution at room temperature in EtOH solution after 96 hrs by HPLC analysis. To be noted: 3% H2O2 solution in EtOH solution; read-out: Drug degradation.
Data set [31] in a line: Photostability of the compound assessed as parent compound remaining under sunlight exposed for 6 days in EtOH solution measured in presence of antioxidant DL-alpha-tocopherol acetate by TLC method. To be noted: read-out: Stability.
A short description of data set [32]: Thermal stability of the compound at 40 degC in EtOH solution after 3 to 4 days by HPLC analysis.

As for `CC(C)=CCC/C(C)=C/CC/C(C)=C/COc1ccc2c(c1)OC(=O)[C@@H]1[C@@H]3C(=O)Oc4cc(OC/C=C(\C)CC/C=C(\C)CCC=C(C)C)ccc4[C@@H]3[C@H]21`, the Drug metabolism entry in data set [1] is “Metabolite_Detected”.

Turning to `C/C1=C\COc2ccc3c(c2)OC(=O)C2C3C(CC/C(C)=C/CC1)C2(C)C` (stereo not drawn), the Drug metabolism entry in data set [1] is “Metabolite_Detected”.

For the compound `CC(C)=CCC/C(C)=C/CC/C(C)=C/COc1ccc2ccc(=O)oc2c1` [UMBELLIPRENIN], the degraded at 48 h in data set [2] worked out at 12.7%; in [29] it was 1.8%. For the same compound, the degraded at 96 h was 85% in [3]; 64.7% in data set [4]; 85% in data set [8]; 22.2% in data set [10]; 91.6% in data set [12]; 54.6 to 65.1% in [13]. For the same compound, the degraded at 96 h in data set [17] was 50.1%; in data set [22] it was 59.4%; in data set [27], 34%; in [30], 41.6%. For the same compound, the remaining at 144 h in data set [5] is 13%; in [6], 9%; in [26], 88%; in [28], 98%; in data set [31], 10%. Also, the degraded at 24 h is 19.1% in data set [7]; 39.4% in data set [9]; 25.8% in data set [18]; 70.4% in [19]; > 95% in data set [24]. The remaining at 72 h in data set [11] came to 32%; in data set [15], 97%; in data set [21], 100%; in data set [23], 35%; in [25], 56%. The Stability result in data set [14] was “Stable”; in data set [16] it was “Unstable”; in [20] it was “Stable”; in data set [32], “Unstable”.
